Counter-ions that a name gives are not always drawn. Like-named read-outs stand apart in the source and are kept apart here.
Legend:
human D2L receptors [1] = target: T1, human D2L receptors (Homo sapiens, UniProt P14416); assay: Competition kinetic binding with PPHT-red tracer (TR-FRET, Motulsky-Mahan); settings: for t 1/2: dissociation half-life from k off
human D2L receptors [2] = target: T1, human D2L receptors; assay: biochemical
human D2L receptors [3] = target: T1, human D2L receptors; assay: Equilibrium competition binding with PPHT-red (TR-FRET)
human D2L receptors [4] = target: T1, human D2L receptors
D2R = D2R (Homo sapiens, UniProt P14416); assay: biochemical
D2R, sequence (P14416 whole entry): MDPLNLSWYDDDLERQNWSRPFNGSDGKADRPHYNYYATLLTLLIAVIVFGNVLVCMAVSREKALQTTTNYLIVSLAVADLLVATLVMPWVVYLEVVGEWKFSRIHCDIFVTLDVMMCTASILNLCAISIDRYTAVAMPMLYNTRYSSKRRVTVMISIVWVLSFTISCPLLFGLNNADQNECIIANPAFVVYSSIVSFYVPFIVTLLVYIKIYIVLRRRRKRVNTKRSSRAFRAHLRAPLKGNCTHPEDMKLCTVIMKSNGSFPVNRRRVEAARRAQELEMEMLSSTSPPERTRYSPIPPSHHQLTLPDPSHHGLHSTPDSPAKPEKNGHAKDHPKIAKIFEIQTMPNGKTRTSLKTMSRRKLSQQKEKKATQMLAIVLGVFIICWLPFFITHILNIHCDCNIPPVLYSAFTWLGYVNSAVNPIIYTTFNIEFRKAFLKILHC

[5] = cited from earlier work
[6] = clinical; cited from earlier work
[7] = 37 °C, 100 μM GppNHp, 12.5 nM PPHT-red tracer, CHO-D2L membranes, mean ± s.e.m., four experiments

T1 sequence (P14416 whole entry): as above

Row | Molecule | t 1/2 (human D2L receptors [1]) [min] | Kd (human D2L receptors [2]) [pM] | Ki (human D2L receptors [3]) [pM] | also measured
1 | CN1CC2c3ccccc3Oc3ccc(Cl)cc3C2C1 (centres unmarked) [Asenapine, asenapine maleate] | 0.75 |  |  | 
2 | OCCN1CCN(CCC=C2c3ccccc3Sc3ccc(C(F)(F)F)cc32)CC1 [Flupenthixol, flupenthixol dihydrochloride] |  | 214 | 209 | t 1/2 (human D2L receptors [4]): 9.63 min; k off (human D2L receptors [1]): 0.0012 ± 0.000167 s⁻¹; k on (human D2L receptors [1]): 3.50 ± 0.72 × 10^8 M^−1 min^−1
3 | OCCN1CCN(CCCN2c3ccccc3Sc3ccc(C(F)(F)F)cc32)CC1 [Fluphenazine, fluphenazine dihydrochloride] | 17.33 |  |  | 
4 | CN1CCN(C2=Nc3ccccc3Oc3ccc(Cl)cc32)CC1 [Loxapine, loxapine succinate] | 0.32 |  |  | 
5 | CNc1cc(OC)c(C(=O)NC2CCN(Cc3ccccc3)C2C)cc1Cl (centres unmarked) [Nemonapride, nemonapride] | 38.50 |  |  | 
6 | OCCN1CCN(CCCN2c3ccccc3Sc3ccc(Cl)cc32)CC1 [Perphenazine, perphenazine] | 3.01 | 186 | 295 | k off (human D2L receptors [1]; [7]): 0.00383 ± 0.00033 s⁻¹; k on (human D2L receptors [1]; [7]): 1.29 ± 0.17 × 10^9 M^−1 min^−1
7 | OCCOCCN1CCN(C2=Nc3ccccc3Sc3ccccc32)CC1 [Quetiapine, quetiapine hemifumarate] |  |  |  | plasma half-life, in words [5]: short
8 | CCN1CCC[C@H]1CNC(=O)c1c(O)c(Cl)cc(Cl)c1OC [Raclopride, raclopride] | 1.31 |  |  | 
9 | CN1CCN(CCCN2c3ccccc3Sc3ccc(C(F)(F)F)cc32)CC1 [Trifluoperazine, trifluoperazine dihydrochloride] | 3.15 | 204 | 331 | k off (human D2L receptors [4]): 0.00367 ± 0.00017 s⁻¹; k on (human D2L receptors [4]): 1.10 ± 0.20 × 10^9 M^−1 min^−1
10 | CN(C)CCOC1=Cc2ccccc2Sc2ccc(Cl)cc21 [Zotepine, zotepine] | 0.49 |  |  | 
11 | O=C1CCc2ccc(OCCCCN3CCN(c4cccc(Cl)c4Cl)CC3)cc2N1 [aripiprazole] |  |  |  | propensity to cause prolactin release, in words [6]: very little propensity to cause prolactin release
12 | (+)-butaclamol [(+)Butaclamol] |  |  |  | t 1/2 (human D2L receptors [4]): 26.65 min

The next lines start with results.

Row | t 1/2 (human D2L receptors [1]) [min] | Kd (human D2L receptors [2]) [pM] | Ki (human D2L receptors [3]) [pM] | Molecule | also measured
13 | 1.82 | 195 | 102 | O=C(CCCN1CC=C(n2c(=O)[nH]c3ccccc32)CC1)c1ccc(F)cc1 [Droperidol, droperidol] | k off (human D2L receptors [1]; [7]): 0.00633 ± 0.00067 s⁻¹; k on (human D2L receptors [1]; [7]): 2.01 ± 0.38 × 10^9 M^−1 min^−1
14 | 0.41 | 20400 | 26900 | CCc1c(C)[nH]c2c1C(=O)C(CN1CCOCC1)CC2 (centres unmarked) [Molindone, molindone hydrochloride] | k off (D2R): 0.0282 s⁻¹; k off (human D2L receptors [1]; [7]): 0.0282 ± 0.0075 s⁻¹; k on (human D2L receptors [1]; [7]): 8.69 ± 2.6 × 10^7 M^−1 min^−1
15 | 1.58 | 2510 | 2880 | Cc1nc2n(c(=O)c1CCN1CCC(c3noc4cc(F)ccc34)CC1)CCCC2O (centres unmarked) [Paliperidone, paliperidone] | k off (D2R): 0.0075 s⁻¹; k off (human D2L receptors [1]; [7]): 0.00733 ± 0.00067 s⁻¹; k on (human D2L receptors [1]; [7]): 1.80 ± 0.29 × 10^8 M^−1 min^−1
16 | 1.17 |  |  | O=C1NCCN1CCN1CCC(c2cn(-c3ccc(F)cc3)c3ccc(Cl)cc23)CC1 [Sertindole, sertindole] | 
17 | 18.24 |  |  | O=C(CCCN1CCC2(CC1)C(=O)NCN2c1ccccc1)c1ccc(F)cc1 [Spiperone, spiperone] | 
18 | 0.65 |  |  | O=C1Cc2cc(CCN3CCN(c4nsc5ccccc45)CC3)c(Cl)cc2N1 [Ziprasidone, ziprasidone hydrochloride monohydrate] | 

Source: paper PMC5624946, “Extrapyramidal side effects of antipsychotics are linked to their association kinetics at dopamine D2 receptors” (Nature Communications, 2017)
